The values below come from patent US20260274833A1 (NiKang Therapeutics, Inc., priority 2022, published 2026).

This assay has as its target T1, CDK2 (Homo sapiens, UniProt P24941).
T1 construct: endogenous in cells; host or cells: OVCAR3 cells
In words: Phospho-RB measurement in OVCAR3 cells (HTRF phospho-RB cellular kit). In kind it is cell-based. As to conditions: inhibition of RB phosphorylation at S807/811 (HTRF, TR-FRET ratio 665/620), 24 h compound treatment, 0.3 to 10,000 nM. How it is done: Biological Example 1: Phospho-RB Measurement in OVCAR3 Cells
The ability of compounds of Formula (I) to inhibit CDK2 was determined in OVCAR3 cells by measuring inhibition of phosphorylation of RB protein at S780 and S807/811. Phosphorylation of RB protein at S807/811 were measured using HTRF phospho-RB cellular kits (Cat #64RBS807PEG) from Cisbio.
On Day 1, OVCAR3 cells were seeded into 96-well tissue-culture treated plates at 20,000 cells/well in 200 μL and incubated overnight at 37° C. in CO2 atmosphere. On Day 2, the cells were treated with test compounds at concentrations from 0.3 to 10,000 nM using HP D300 digital dispenser. Twenty-four hours after compound treatment, cell culture media was removed by flicking the plate and tapping the plate against clean paper towel. Immediately 30 μL 1× lysis buffer was supplemented from the kit and the plate was incubated at room temperature on shaker for 30 min. After homogenization by pipetting up and down, 8 μL cell lysate from 96-well cell culture plate was transferred to 384-well small volume white detection plate. 2 μL premixed detection solution was added and the plate was covered with sealer. To prepare the detection solution, d2 conjugated-phospho-RB antibody and Eu-cryptate conjugated phosphor-RB antibody were diluted into detection buffer following manufacturer's instruction.
Detection plates were incubated for 4 h at room temperature and read on ClarioStar (BMG Labtech) in TR-FRET mode ([…]). The TR-FRET ratio (665 nM/620 nM) was plotted against the compound concentration and normalized to DMSO controls. Half maximal inhibition concentration (IC50) values are calculated with a four-parameter logistic fit using GraphPad Prism (version 8; La Jolla, CA).
Usually IC50 stands for the point on the concentration scale where inhibition reaches its midpoint. Take `CC(C)(C)c1nc(-c2cccc(NS(=O)(=O)N3CCc4ccc(-c5ccccc5)cc43)c2F)c(-c2ccnc(NC3CC4(C3)CS(=O)(=O)C4)n2)s1` [Example 217, N-(3-(2-(tert-butyl)-5-(2-((2,2-dioxido-2-thiaspiro[3.3]heptan-6-yl)amino)-pyrimidin-4-yl)thiazol-4-yl)-2-fluoro-phenyl)-6-phenyl-indoline-1-sulfonamide]: the IC50 is 934 nM.
As for `CC(C)(C)c1nc(-c2cccc(NS(=O)(=O)N3CCOc4ccccc43)c2F)c(-c2ccnc(NC3CCN(S(=O)(=O)N4CCNCC4)CC3)n2)s1` [Example 136, N-(3-(2-(tert-butyl)-5-(2-((1-(piperazin-1-ylsulfonyl)piperidin-4-yl)amino)-pyrimidin-4-yl)thiazol-4-yl)-2-fluorophenyl)-2,3-dihydro-4H-benzo[b][1,4] oxazine-4-sulfonamide], the half-inhibitory concentration (IC50) is 1490 nM.
`CC(C)(C)c1nc(-c2cccc(NS(=O)(=O)N3CCOc4ccccc43)c2F)c(-c2ccnc(NC3CCN(S(C)(=O)=O)CC3)n2)s1` [Example 98, N-(3-(2-(tert-butyl)-5-(2-((1-(methylsulfonyl)piperidin-4-yl)amino)-pyrimidin-4-yl)thiazol-4-yl)-2-fluoro-phenyl)-2,3-dihydro-4H-benzo[b][1,4]-oxazine-4-sulfonamide]: the IC50 was found to be 511 nM.
Turning to `CN(C)CCN(C)S(=O)(=O)N1CCC(Nc2nccc(-c3sc(C(C)(C)C)nc3-c3cccc(NS(=O)(=O)N4Cc5cccnc5C4)c3F)n2)CC1` [Example 121, N-(3-(2-(tert-butyl)-5-(2-((1~(N-(2-(dimethylamino)ethyl)-N-methylsulfamoyl)-piperidin-4-yl)amino)-pyrimidin-4-yl)thiazol-4-yl)-2-fluoro-phenyl)-5,7-dihydro-6H-pyrrolo[3,4-b]-pyridine-6-sulfonamide], the IC50 came out at 265 nM.
For `O=S1(=O)CC2(CC(Nc3nccc(-c4sc(C56CC(C(F)F)(C5)C6)nc4-c4cccc(NS(=O)(=O)N5CCc6ccc(C(F)(F)F)cc65)c4F)n3)C2)C1` [Example 278, N-(3-(2-(3-(difluoromethyl)bicyclo-[1.1.1]-pentan-1-yl)-5-(2-((2,2-dioxido-2-thiaspiro[3.3]heptan-6-yl)amino)-pyrimidin-4-yl)thiazol-4-yl)-2-fluorophenyl)-6-(trifluoromethyl)-indoline-1-sulfonamide] the value was 103 nM; for `COc1cc2c(cc1OC)CN(S(=O)(=O)Nc1cccc(-c3nc(C(C)(C)C)sc3-c3ccnc(NC4CCN(S(C)(=O)=O)CC4)n3)c1F)C2` [Example 87, N-(3-(2-(tert-butyl)-5-(2-((1-(methylsulfonyl)-piperidin-4-yl)amino)-pyrimidin-4-yl)thiazol-4-yl)-2-fluorophenyl)-5,6-dimethoxy-isoindoline-2-sulfonamide], 325 nM.
For `O=S1(=O)CC2(CC(Nc3nccc(-c4sc(C56CC(C5)C6)nc4-c4cccc(NS(=O)(=O)N5CCc6c5ccc(F)c6F)c4F)n3)C2)C1` [Example 45, N-(3-(2-(bicyclo [1.1.1]pentan-1-yl)-5-(2-((2,2-dioxido-2-thiaspiro[3.3]heptan-6-yl)amino)-pyrimidin-4-yl)thiazol-4-yl)-2-fluorophenyl)-4,5-difluoroindoline-1-sulfonamide] the value was 314 nM; for `CN(C)c1cccc2c1CN(S(=O)(=O)Nc1cccc(-c3nc(C(C)(C)C)sc3-c3ccnc(NC4CC5(C4)CS(=O)(=O)C5)n3)c1F)C2` [Example 206, N-(3-(2-(tert-butyl)-S-(2-((2,2-dioxido-2-thiaspiro[3.3]heptan-6-yl)amino)-pyrimidin-4-yl)thiazol-4-yl)-2-fluoro-phenyl)-4-(dimethylamino) isoindoline-2-sulfonamide], 619 nM.
Consider `CC(C)(c1nc(-c2cccc(NS(=O)(=O)N3CCc4ccccc43)c2F)c(-c2ccnc(N[C@H]3CC[C@H](S(C)(=O)=O)CC3)n2)s1)C(F)(F)F` [Example 288, N-(2-fluoro-3-(5-(2-(((1r,4r)-4-(methylsulfonyl)cyclohexyl)amino)-pyrimidin-4-yl)-2-(1,1,1-trifluoro-2-methylpropan-2-yl)thiazol-4-yl)phenyl)-indoline-1-sulfonamide], for which the IC50 worked out at 122 nM.
For `O=S1(=O)CC2(CC(Nc3nccc(-c4sc(C56CC(C5)C6)nc4-c4cccc(NS(=O)(=O)N5CCc6ccc(OC(F)F)cc65)c4F)n3)C2)C1` [Example 48, N-(3-(2-(bicyclo [1.1.1]pentan-1-yl)-5-(2-((2,2-dioxido-2-thiaspiro[3.3]heptan-6-yl)amino)-pyrimidin-4-yl)thiazol-4-yl)-2-fluorophenyl)-6-(difluoromethoxy)-indoline-1-sulfonamide] the value was 139 nM; for `CC(C)(C)c1nc(-c2cccc(NS(=O)(=O)N3CCc4ccc(C#N)cc43)c2F)c(-c2ccnc(N[C@H]3[C@@H]4CS(=O)(=O)C[C@@H]43)n2)s1` [Example 223, N-(3-(2-(tert-butyl)-5-(2-(((1R,5S,6r)-3,3-dioxido-3-thiabicyclo [3.1.0]hexan-6-yl)amino)pyrimidin-4-yl)thiazol-4-yl)-2-fluorophenyl)-6-cyanoindoline-1-sulfonamide], 89 nM.
On to `N#Cc1ccc2c(c1)N(S(=O)(=O)Nc1cccc(-c3nc(C45CC(C4)C5)sc3-c3ccnc(NC4CCN(S(=O)(=O)N5CCNCC5)CC4)n3)c1F)CC2` [Example 263, N-(3-(2-(bicyclo [1.1.1]pentan-1-yl)-5-(2-((1-(piperazin-1-ylsulfonyl)piperidin-4-yl)amino)-pyrimidin-4-yl)thiazol-4-yl)-2-fluorophenyl)-6-cyanoindoline-1-sulfonamide], for which the IC50 was found to be 118 nM.
For `CC(C)(C)c1nc(-c2cccc(NS(=O)(=O)N3CCc4ccccc43)c2F)c(-c2ccnc(NC3CCN(S(=O)(=O)N4CCNCC4)CC3)n2)s1` [Example 158, N-(3-(2-(tert-butyl)-5-(2-((1-(piperazin-1-ylsulfonyl)piperidin-4-yl)amino)-pyrimidin-4-yl)thiazol-4-yl)-2-fluoro-phenyl)indoline-1-sulfonamide] the value was 99.6 nM; for `CC(C)(C)c1nc(-c2cccc(NS(=O)(=O)N3CCC4(CC4)C3)c2F)c(-c2ccnc(NC3CC4(C3)CS(=O)(=O)C4)n2)s1` [Example 180, N-(3-(2-(tert-butyl)-5-(2-((2,2-dioxido-2-thiaspiro[3.3]heptan-6-yl)amino)-pyrimidin-4-yl)thiazol-4-yl)-2-fluoro-phenyl)-5-azaspiro[2.4] heptane-5-sulfonamide], 2820 nM.
As to `CS(=O)(=O)[C@H]1CC[C@H](Nc2nccc(-c3sc(C4(C(F)(F)F)CC4)nc3-c3cccc(NS(=O)(=O)N4CCc5ccc(C(F)(F)F)cc54)c3F)n2)CC1` [Example 282, N-(2-fluoro-3-(5-(2-(((1r,4r)-4-(methylsulfonyl)cyclohexyl)amino)pyrimidin-4-yl)-2-(1-(trifluoromethyl)-cyclopropyl)thiazol-4-yl)phenyl)-6-(trifluoromethyl) indoline-1-sulfonamide], the IC50 stood at 357 nM.
For `Cn1ncc2c1CN(S(=O)(=O)Nc1cccc(-c3nc(C(C)(C)C)sc3-c3ccnc(NC4CCN(S(C)(=O)=O)CC4)n3)c1F)C2` [Example 85, N-(3-(2-(tert-butyl)-5-(2-((1-(methylsulfonyl)-piperidin-4-yl)amino)-pyrimidin-4-yl)thiazol-4-yl)-2-fluoro-phenyl)-1-methyl-4,6-dihydro-pyrrolo[3,4-c]pyrazole-5(1H)-sulfonamide] the value was 394 nM; for `COCCN1CCN(c2ccc(Nc3nccc(-c4sc(C(C)(C)C)nc4-c4cccc(NS(=O)(=O)N5CCc6ccc(C#N)cc65)c4F)n3)cc2)CC1` [Example 233, N-(3-(2-(tert-butyl)-5-(2-((4-(4-(2-methoxy-ethyl)piperazin-1-yl)phenyl)-amino)-pyrimidin-4-yl)thiazol-4-yl)-2-fluorophenyl)-6-cyanoindoline-1-sulfonamide], 765 nM.
For `CN1CCN(S(=O)(=O)Nc2cccc(-c3nc(C(C)(C)C)sc3-c3ccnc(NC4CCN(S(C)(=O)=O)CC4)n3)c2F)CC1=O` [Example 89, N-(3-(2-(tert-butyl)-5-(2-((1-(methylsulfonyl)-piperidin-4-yl)amino)-pyrimidin-4-yl)thiazol-4-yl)-2-fluoro-phenyl)-4-methyl-3-oxopiperazine-1-sulfonamide] the value was 4810 nM; for `CCN(CC)S(=O)(=O)Nc1cccc(-c2nc(C(C)(C)C)sc2-c2ccnc(NC3CC4(C3)CS(=O)(=O)C4)n2)c1F` [Example 191, N-(3-(2-(tert-butyl)-5-(2-((2,2-dioxido-2-thiaspiro[3.3]heptan-6-yl)amino)-pyrimidin-4-yl)thiazol-4-yl)-2-fluoro-phenyl)-diethylamine-sulfonamide], 8620 nM; for `CC(C)(C)c1nc(-c2cccc(NS(=O)(=O)N3CCc4ccc(C#N)cc43)c2F)c(-c2ccnc(NC3CCN(S(C)(=O)=O)CC3)n2)s1` [Example 118, N-(3-(2-(tert-butyl)-5-(2-((1-(methylsulfonyl)-piperidin-4-yl)amino)-pyrimidin-4-yl)thiazol-4-yl)-2-fluorophenyl)-6-cyanoindoline-1-sulfonamide], 66.9 nM.
